We go through 13 molecules from patent US20240279201A1, “DUAL WNT SIGNALING PATHWAY INHIBITORS AND AMPK ACTIVATORS FOR TREATMENTS OF DISEASE” (priority 2021, published 2024).

Some results are limits rather than exact numbers.

In series [1] the test system is CRC cells. Particulars: as reported in literature; cited from earlier work.
For series [2], the system named is Wnt signaling in SW480 cells. The experiment in a line: Luciferase gene reporter (TOPflash) assay in SW480 cells. The series is classed as cell-based, human.
The test system of series [3] is Wnt/β-Catenin signaling pathway. The experiment in a line: Wnt signaling luciferase (TOPflash) reporter gene assay. The series is classed as cell-based. Particulars: for IC50: luciferase reporter gene assay, mean of three independent experiments, read-out: IC50 (nM) to inhibit the Wnt signaling activity. From the text:
A dual-luciferase gene reporter assay was used to test inhibitory activities of new compounds on Wnt signaling. […] Therefore, the effects of new compounds on AMPK was examined. […]
Background: A reporter such as luciferase makes a cellular process visible.

A short description of series [4]: Cytotoxicity (CC50) during the luciferase gene reporter assay. The series is classed as cell-based. Particulars: human, HEK293 cells; short treatment duration of the luciferase gene reporter assay.
Series [5] deals with HEK293 cells. Described as above. Particulars: short treatment duration of the luciferase gene reporter assay. The series is classed as cell-based.
Series [6] concerns AMPK. Description: AMPK activation in SW620 cells (immunoblotting). The series is classed as cell-based. The procedure:
HEK293 cells were stained with anti-axin-1 or DAPI and studied under fluorescence microscopy. FIG. 26B is an image illustrating enhanced AMPK phosphorylation by Axin overexpression (empty pcDNA3 vs. pcDNA3-Axin-1) in HEK293 cells. […] See FIG. 23A-FIG. 23C for Axin knockdown. […] Cells were treated for 24 h.
Treatment of compound YW2049 indicated no effects on total protein levels of AMPK and ACC in SW620 cells.
The effects of FX analogs in Axin stabilization and AMPK activation were further studied by genetic manipulation of Axin. Axin overexpression led to enhanced AMPK activation (FIG. 26A and FIG. 26B). In contrast, it has been reported that knockdown of Axin in cells and in mouse liver impairs AMPK activation. […] This timeline is consistent with the reports that Axin can form a complex with AMPK.

The subject of series [7] is SW620 xenograft. Description: SW620 xenograft in nude mice. The series is classed as in vivo.
Series [8] concerns the target RPS6KA3 (Homo sapiens (Human), UniProt P51812). Description: Off-target kinase panel, RPS6KA3. Particulars: read-out: inhibition of RPS6KA3.
In series [9] the test system is SW480, SW620, and HT29 cells. Description: Colony formation assay. The series is classed as cell-based. An excerpt:
FIG. 23A is an image illustrating a colony formation assay. […] The orange circle indicates cells in early apoptosis.

Series [10] relates to Wnt signaling in SW620 cells. The experiment in a line: Luciferase gene reporter (TOPflash) assay in SW620 cells. Particulars: Homo sapiens, SW-620, read-out: IC50, inhibition of Wnt signaling. The series is classed as cell-based.
A short description of series [11]: in vivo. Particulars: C57/BL6, mouse, in vivo, po. Here is the method:
(§1) The ADMET and PK properties of YA6060 was determined.
PK/Tox. The four selected compounds from in vitro evaluation above are subjected to PK and toxicity assessment in C57/BL6 mice. […] Compound concentrations is determined by LC/MS/MS. PK analysis is carried out on Phoenix Winnolin using non-compartmental analysis and compartment models. Compound accumulation in major tissues, including liver, kidney, heart, brain and intestine, are quantified. […] For study ii, a half number of mice per group are sacrificed immediately after the 3-week course and the remaining after a 2-week washout period to assess delayed toxicity. In toxicity studies, blood is collected upon euthanasia for liver and renal chemistries and complete blood counts, and major organs harvested and examined macro- and microscopically by veterinarian pathologists. It is expected that an understanding of PK properties, such as bioavailability, AUC, clearance, and toxic effects, such as general tolerance and specific toxicity in the liver, kidney, other major organs, and particularly Wnt-dependent tissues, such as intestine, stomach, and skin is established for these selected compounds.

In series [12] the target is Axin 1 (Homo sapiens (Human), UniProt O15169). The experiment in a line: Western blotting of Axin 1 in HEK293 cells. Particulars: 100 nM, 24 h. The series is classed as cell-based. Here is the method:
(§2) FIG. 6A-FIG. 6E illustrate the development of Axin stabilizers with dual activities of Wnt inhibition and AMPK activation. […] HEK293 cells were used. B&C: 100 nM compounds, 24 h. FIG. 6D is a table showing the activity profile of YA6060. F=bioavailability; soubility is aqueous solubility.
(§3) A dual-luciferase gene reporter assay was used to test inhibitory activities of new compounds on Wnt signaling. […] Axin is also reported to form a complex with AMPK and its upstream kinase LKB1 (FIG. 12A and FIG. 12B) to facilitate AMPK activation. Therefore, the effects of new compounds on AMPK was examined. […] YA6060 and its analogs had dual activities of potent Wnt signaling inhibition and AMPK activation, which were dependent on the levels of scaffolding protein Axin.

Series [13] deals with β-catenin (Homo sapiens (Human), UniProt P35222). Description: Western blotting of β-catenin in HEK293 cells. The series is classed as cell-based. Particulars: 100 nM, 24 h. The procedure: as §2, §3
Background: A western blot detects proteins with antibodies after separation by electrophoresis.

Series [14] has as its system AMPK. The experiment in a line: Western blotting of phosphorylated AMPK in HEK293 cells. The series is classed as cell-based. Particulars: 100 nM, 24 h. The procedure: as §2, §3
For series [15], the system named is HT29 cells. Description: Viability of HT29 cells. The series is classed as cell-based. Particulars: Homo sapiens, HT-29, read-out: IC50, cell viability.
The nature of series [16]: physchem. Particulars: water, aqueous solubility. The procedure: as §1
Determination of physiochemical properties. The profiles of six selected analogs is estimated in silico, and selected Axin stabilizers are evaluated in in vitro assays: the aqueous solubility is determined using a multiscreen solubility filter plate (Millipore, Billerica, MA) coupled with LC-MS/MS, as performed for the already synthesized YA6060 analogs; the cell viability assays on selected analogs is measured using HEK293 cells; the intestinal permeability by determining the transport from the apical to the basolateral (A to B) in Caco-2 monolayers; the metabolic stability by incubating the compounds with mouse microsomes and liver tissue S9 fraction and analyzing by LC-MS/MS.

The subject of series [17] is SW480 cells. The experiment in a line: Mitochondrial function in SW480 cells.

Sequence of RPS6KA3 (P51812 whole entry, species assumed): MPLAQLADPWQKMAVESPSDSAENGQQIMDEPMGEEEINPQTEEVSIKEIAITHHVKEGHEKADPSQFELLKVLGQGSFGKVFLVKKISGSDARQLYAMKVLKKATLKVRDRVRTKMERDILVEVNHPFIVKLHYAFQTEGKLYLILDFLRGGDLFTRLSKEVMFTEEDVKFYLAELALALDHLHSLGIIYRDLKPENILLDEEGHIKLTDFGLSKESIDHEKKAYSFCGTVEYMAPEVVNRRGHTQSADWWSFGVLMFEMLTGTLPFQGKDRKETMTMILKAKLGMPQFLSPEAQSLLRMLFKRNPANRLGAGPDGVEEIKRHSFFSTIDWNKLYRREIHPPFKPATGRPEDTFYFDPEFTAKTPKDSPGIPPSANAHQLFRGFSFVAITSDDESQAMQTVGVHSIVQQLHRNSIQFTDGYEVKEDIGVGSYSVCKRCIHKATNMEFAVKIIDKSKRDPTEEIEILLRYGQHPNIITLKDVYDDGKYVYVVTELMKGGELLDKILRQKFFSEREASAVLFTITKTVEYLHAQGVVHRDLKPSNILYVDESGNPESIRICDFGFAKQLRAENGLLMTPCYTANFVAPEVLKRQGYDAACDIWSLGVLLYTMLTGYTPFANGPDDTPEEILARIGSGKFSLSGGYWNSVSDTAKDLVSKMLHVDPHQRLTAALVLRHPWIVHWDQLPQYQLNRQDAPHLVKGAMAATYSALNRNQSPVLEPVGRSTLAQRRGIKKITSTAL

Turning to `O=c1[nH]cc(F)c(=O)[nH]1` [5-FU], the “IC50 in killing CRC cells” value in series [1] was “low μM”.

One may read the inhibition as the drop in the measured response relative to a control, in per cent. What is called CC50 is the concentration at which the toxic effect on the cells reaches its halfway point. A lower CC50 goes with harm at low concentration. For `Oc1nc(-c2ccc(C(F)(F)F)cc2)nc2c1CSCC2` [XAV939, reference compound], the “extent of inhibition of Wnt signaling activity in reporter assays” value in series [2] was “could not fully inhibit Wnt signaling activity”. The molecule also had an inhibition at 1 µM in series [3] of 74%. For the same molecule, the half-maximal cytotoxic concentration (CC50) in [4] is more than 92000 nM.

One may read the IC50 as the concentration needed to halve the response being measured. Consider `Cc1ccccc1-n1nnc(C(=O)Nc2ccc3cc(CN4CCNCC4)ccc3n2)c1C` [YA10951, 5-Methyl-N-(6-(piperazin-1-ylmethyl)quinolin-2-yl)-1-(o-tolyl)-1H-1,2,3-triazole-4-carboxamide], for which the IC50 in [3] was 4.3 nM. This molecule yielded a CC50 in series [5] of more than 92000 nM.

As to `Cc1ccccc1-n1nnc(C(=O)Nc2ccc3cnccc3c2)c1C` [YA61692, N-(Isoquinolin-6-yl)-5-methyl-1-(o-tolyl)-1H-1,2,3-triazole-4-carboxamide], the IC50 in [3] was more than 1000 nM. For the same molecule, in series [4], the CC50 is more than 92000 nM.

In the case of `Cc1ccccc1-n1nnc(C(=O)Nc2cccc3ncccc23)c1C` [YA61693, 5-Methyl-N-(quinolin-5-yl)-1-(o-tolyl)-1H-1,2,3-triazole-4-carboxamide], the IC50 in series [3] is more than 1000 nM. Besides, the CC50 in series [4] is more than 92000 nM.

As to `Cc1ccccc1-n1nnc(C(=O)Nc2ccc3ccccc3n2)n1` [YA70031, N-(Quinolin-2-yl)-2-(o-tolyl)-2H-tetrazole-5-carboxamide], the half-maximal inhibitory concentration (IC50) in [3] is more than 1000 nM. The molecule also returned a CC50 in series [4] of more than 92000 nM.

For the molecule `O=C(Nc1ccc2ccccc2n1)c1nnn(-c2ccccc2F)n1` [YA70032, 2-(2-Fluorophenyl)-N-(quinolin-2-yl)-2H-tetrazole-5-carboxamide], the IC50 in [3] was more than 1000 nM. For the same molecule, in [4], the CC50 was more than 92000 nM.

On to `O=C(Nc1ccc2ccccc2n1)c1nnn(-c2ccccc2Cl)n1` [YA70033, 2-(2-Chlorophenyl)-N-(quinolin-2-yl)-2H-tetrazole-5-carboxamide], for which, in [3], the IC50 is more than 1000 nM. Further, the CC50 in series [4] is more than 92000 nM.

Consider `COc1ccccc1-n1nnc(C(=O)Nc2ccc3ccccc3n2)n1` [YA70034, 2-(2-Methoxyphenyl)-N-(quinolin-2-yl)-2H-tetrazole-5-carboxamide], for which, in [3], the IC50 is more than 1000 nM. Moreover, the CC50 in series [4] was more than 92000 nM.

For the molecule `Cc1ccccc1-n1cc(C(=O)Nc2ccc3ccccc3n2)nn1` [YA70131, N-(Quinolin-2-yl)-1-(o-tolyl)-1H-1,2,3-triazole-4-carboxamide], the IC50 in series [3] was more than 1000 nM. Further, the CC50 in series [4] was more than 92000 nM.

For the molecule `Cc1ccccc1-n1nnc(C(=O)Nc2ccc3ccccc3n2)c1C` [YW1128], in [6], the p-AMPK levels entry is given as “increased”.

The term bioavailability denotes the share of a dose that reaches the circulation, judged against a reference dose that is usually intravenous. As usually defined, the solubility is how much of the substance goes into solution per volume. Lower therefore signals a poorly soluble substance. Take `Cc1c(C(=O)Nc2ccc3ccccc3n2)cnn1-c1ccccc1Br` [YW2065]: the “tumor growth and tumor weight” value in [7] (i.p. each day, dose-dependent) is reported as “reduced both tumor growth”. The body weight gain result in series [7] (mouse, in vivo) is listed as “not affected”. Further, the inhibition at 1000 µM in series [8] was found to be 39%. In addition, in series [9], the colony formation entry is reported as “inhibited the colony formation”. In addition, the IC50 in series [10] was determined as 0.19 nM; in series [2] (Homo sapiens, read-out: IC50, inhibition of Wnt signaling), 1.2 nM; in series [15], 17000 nM. Besides, the “extent of inhibition of Wnt signaling activity in reporter assays” value in series [2] was “could abolish Wnt activity at high concentrations”. In [11], the bioavailability turned out to be 13%. Also, the p-AMPK levels entry in [6] was “increased”. The “level of Axin 1” value in [12] is given as “stabilizing”. Moreover, the “protein level of β-catenin” value in series [13] was “decreased”. Also, the “levels of phosphorylated AMPK (p-AMPK)” value in [14] is reported as “significantly increased”. This molecule also displayed a solubility in series [16] of less than 10 µg/mL. Also, the “O2 consumption rate and ATP production” value in series [17] is “reduced O2 consumption rate”. Besides, the CC50 in [4] is more than 92000 nM.

For `O=C1[O][Pt]2([NH][C@@H]3CCCC[C@H]3[NH]2)[O]C1=O` [oxaliplatin], in [1], the “IC50 in killing CRC cells” value is given as “low μM”.
